Results taken from paper PMC8037809, “Biomimetic Chromatographic Studies Combined with the Computational Approach to Investigate the Ability of Triterpenoid Saponins of Plant Origin to Cross the Blood–Brain Barrier” (International Journal of Molecular Sciences, 2021).
Where two headings read alike, the source gives them in different places.

Assays:
[1] = design: method as in earlier work; settings: experimentally obtained; QSAR training and test sets; cited from earlier work
[2] = biomimetic chromatography (BMC, IAM, CHOL) with the QSAR equation, compared with computational logBB; settings: for ability to cross the BBB (conclusion): from biomimetic and computational studies
Source text: To calculate the logBB values for the tested saponins, the QSAR model previously obtained was used. In this QSAR predictive model the BBB penetration potential was correlated with the lipophilic properties (logPow), excess molar refraction (E), the difference between the logarithms of n-octanol/water and cyclohexane/water partition coefficients values (ΔlogP) being the hydrogen-bonding potential:logBB = −0.114 − 0.098 ΔlogP + 0.278 logPow + 0.218E(2)
Chromatographic biomimetic methods, including IAM, BMC, and CHOL, were used to determine BBB permeability of the tested triterpenoid saponins. For this purpose, the values of logkw, being the logarithm of retention factor extrapolated to pure water, were determined. These values were compared with the logBB values calculated in silico and those obtained using the QSAR model (Equation (2)). Logkw is recognized to be an alternative to the logPow lipophilicity descriptor [96]. On the other hand, lipophilicity is one of the most important features influencing the ability of substances to cross biological barriers.
Moreover, for the micellar biomimetic studies (BMC), Foley’s equation [97] (Equation (3)) was used to calculate important physicochemical parameters, i.e., the analyte–micelle association constant (KMA) and the partition coefficient of the analyte between the stationary phase and water (Psw). These parameters can describe possible interactions in the micellar system since the Brij35 micelle can be treated as a simple model of a biological barrier. (3) 1/k= KMA/PSWΦCM+ 1/PSWΦ where k is the retention factor, CM is the concentration of micelles, KMA is the analyte–micelle association constant, PSW is the partition coefficient of the analyte between the stationary phase and water, and Φ is the volume ratio of the stationary phase to the mobile phase volume.
As mentioned above the logkw parameter, obtained from the biomimetic chromatographic systems, is recognized to be an alternative to the logarithm of the n-octanol/water partition coefficient (logPow) lipophilicity descriptor. Therefore, logkw-BMC, logkw-IAM, and logkw-CHOL values were used for the calculation of logBB based on the QSAR equation (Equation (2)), instead of the logPow parameter. The values of logBB-BMC, logBB-IAM, and logBB-CHOL were thus calculated. In Figure 2 the above-mentioned logBB values and logBB in silico calculated using the ACD/Percepta software, as well as those of logKMA that can be treated as an equivalent to the logBB parameter, are presented.
The solutions of analytical standards of the studied triterpenoid saponins were prepared in methanol (Merck, Darmstadt, Germany; p.a.) at a concentration of 1 mg/mL. […] In the research each system was optimized previously. In the IAM and CHOL studies, acetonitrile-phosphate buffer solutions (0.3; 0.4; 0.5; 0.6 v/v; pH 7.4) were used as mobile phases. In the case of BMC analysis, the buffered solution of Brij35 (0.075; 0.1; 0.125; 0.15 mol/dm^3; pH 7.4) was used as the mobile phase with the addition of isopropanol as an organic modifier (7% v/v). The buffer was prepared from the solutions of Na2HPO4 and citric acid (0.01 mol/dm^3) and the pH 7.4 value was fixed before the preparation of the mobile phases.
The following stationary phases were employed: IAM.PC.DD2 100 × 4.6 mm i.d., 10 µm (Regis Chemicals Company, Morton Grove, IL, USA); Cosmosil Cholester, 75 × 2 mm i.d., 2.5 µm (Genore, Warsaw, Poland); Purosphere RP-18e (ODS), 125 × 4 mm i.d., 5 µm (Merck, Darmstadt, Germany). The flow rates were established as follows: 1.3 mL/min (IAM), 0.4 mL/min (CHOL), and 1 mL/min (BMC). The tested saponins were detected with UV light at 254 nm. All measurements were made at 25 °C. The dead time values were measured from the non-retained compound (citric acid) peaks. All reported logkw values are the average of at least three independent measurements.

[3] = test system: memory deficits and anxiety induced by Aβ25-35; settings: rats, Aβ25-35 into the lateral ventricles; cited from earlier work
[4] = design: method as in doi:10.1556/1326.2017.00147; settings: rat, intragastric administration of the extract, postmortem; cited from earlier work
[5] = test system: hippocampal CA1 region pyramidal neurons; design: method as in PMID 19433075; settings: ischemia/reperfusion; cited from earlier work
[6] = test system: ethanol-induced memory impairment; design: method as in PMID 18521966; settings: mice; cited from earlier work

Structure (SMILES) | logBB [1] | other results
CN1C(=O)CN=C(c2ccccc2)c2cc(Cl)ccc21 [439-14-5] | 0.56 | –
Cc1ccc(Cc2cnc(NCCSCc3ccc(CN(C)C)o3)[nH]c2=O)cn1 [83903-06-4] | –1.06 | –
CC1(C)CCC2(C(=O)OC3OC(COC4OC(CO)C(O)C(O)C4O)C(O)C(O)C3O)CCC3(C)C(=CCC4C5(C)CCC(OC6OCC(O)C(O)C6O)C(C)(CO)C5CCC43C)C2C1 (stereo not shown) [Akebia saponin D] | – | ability to cross the BBB (conclusion) [2]: can penetrate the BBB; effect on memory deficits and anxiety symptoms [3]: could significantly ameliorate the memory deficits and anxiety symptoms
Clc1ccc(NC2=NCCN2)c(Cl)c1 [23830-88-8] | 0.16 | –
CNC(C)CC1CCCCC1 (stereo not shown) [101-40-6] | 1.08 | –
Brc1cc(Br)c(NC2=NCCN2)c(Br)c1 [38941-33-2] | 0.58 | –
COc1ccc2nc([S+]([O-])Cc3ncc(C)c(OC)c3C)[nH]c2c1 (stereo not shown) [73590-58-6] | –0.82 | –
CC1(C)CC[C@]2(C(=O)O)CC[C@]3(C)C(=CC[C@@H]4[C@@]5(C)C[C@@H](O)[C@H](O)C(C)(C)[C@@H]5CC[C@]43C)[C@@H]2[C@@H]1O [Arjunic acid] | – | ability to cross the BBB (conclusion) [2]: can penetrate the BBB; presence in brain tissues [4]: present in rat brain tissues
CN(C)C(=O)C(CCN1CCC(O)(c2ccc(Cl)cc2)CC1)(c1ccccc1)c1ccccc1 [53179-11-6] | 0.77 | –
CN1CC[C@]23c4c5ccc(O)c4O[C@H]2[C@@H](O)C=C[C@H]3[C@H]1C5.Cl [52-26-6] | –0.16 | –
CC(C)=C[C@H]1C[C@](C)(O)[C@@H]2[C@H]3CC[C@@H]4[C@@]5(C)CC[C@H](O[C@@H]6O[C@H](CO)[C@@H](O)[C@H](O[C@@H]7O[C@H](CO)[C@@H](O)[C@H](O)[C@H]7O)[C@H]6O[C@@H]6O[C@@H](CO)[C@H](O)[C@H]6O)C(C)(C)[C@@H]5CC[C@@]4(C)[C@@]34CO[C@@]2(C4)O1 [Bacoside A] | – | ability to cross the BBB (conclusion) [2]: can penetrate the BBB
Cc1c(O)cccc1C(=O)N[C@@H](CSc1ccccc1)[C@H](O)CN1C[C@H]2CCCC[C@H]2C[C@H]1C(=O)NC(C)(C)C [159989-64-7] | –0.93 | –
CC(C)NCC(O)COc1ccc(CCOCC2CC2)cc1 (stereo not shown) [63659-18-7] | 0.39 | –
C[C@@H]1O[C@@H](O[C@H]2[C@H](OC(=O)[C@]34CCC(C)(C)C[C@H]3C3=CC[C@@H]5[C@@]6(C)C[C@H](O)[C@H](O[C@@H]7O[C@H](CO)[C@@H](O)[C@H](O)[C@H]7O)C(CO)(CO)[C@@H]6CC[C@@]5(C)[C@]3(C)C[C@H]4O)OC[C@H](O)[C@@H]2O)[C@H](O)[C@H](O)[C@H]1O[C@@H]1OC[C@@H](O)[C@H](O[C@@H]2OC[C@](O)(CO)[C@H]2O)[C@H]1O [Platycodin D] | – | average logBB ([2]; average of all obtained logBB values (biomimetic and computational)): −1.681; ability to cross the BBB (conclusion) [2]: does not cross this barrier; logBB ([2]; span of the obtained values over the methods): −2 to −1.29; protection from ischemic damage [5]: protects the hippocampal CA1 region pyramidal neurons from an ischemic damage; effect on ethanol-induced memory impairment [6]: could improve ethanol-induced memory impairment
CC(C)NCC(O)COc1ccc(CC(N)=O)cc1 (stereo not shown) [29122-68-7] | –1 | –
Cc1cc(Cl)ccc1NC1=NCCN1 [4201-26-7] | 0.14 | –
Cc1ccccc1NC1=NCCN1 [36318-56-6] | 0.04 | –
O=C(CCC1CCN(Cc2ccccc2)CC1)c1ccc2c(c1)NCCCC2 [142852-50-4] | 1.14 | –
C=CCC1(C(C)CCC)C(=O)NC(=O)NC1=O (stereo not shown) [76-73-3] | 0.2 | –
